Here are results for 24 compounds from ChEMBL document CHEMBL5230122, “Natural products and other inhibitors of F1FO ATP synthase” (Eur J Med Chem, 2020).

One assay relates to NCI-H292. The assay can be described thus: Anticancer activity against human NCI-H292 cells assessed as reduction in cell proliferation incubated for 48 hrs by Calcein AM and Pluronic F-127 staining based fluorescence plate reader analysis. It counts as functional. The conditions noted are these: NCI-H292, 48 h.
A further assay relates to MCF7. The assay can be described thus: Antiproliferative activity against human MCF7 cells assessed as reduction in cell viability incubated for 48 hrs by MTT assay. It counts as functional, cell-based. Conditions: MCF7, 48 h.
The test system of another assay is HL-60. The assay can be described thus: Antiproliferative activity against human HL-60 cells assessed as reduction in cell viability incubated for 48 hrs by MTT assay. It is filed as functional, cell-based. The conditions noted are these: HL-60, 48 h. Background: Formazan colour is commonly taken as a measure of viable cells.
Another assay relates to SMMC-7721. The assay can be described thus: Antiproliferative activity against human SMMC-7721 cells assessed as reduction in cell viability incubated for 48 hrs by MTT assay. The conditions noted are these: SMMC-7721, 48 h. It is filed as functional, cell-based.
The subject of the next assay is A549. As to the kind of experiment: Antiproliferative activity against human A549 cells assessed as reduction in cell viability incubated for 48 hrs by MTT assay. It counts as functional, cell-based. Conditions: A549, 48 h.
A further assay relates to SW480. The assay can be described thus: Antiproliferative activity against human SW480 cells assessed as reduction in cell viability incubated for 48 hrs by MTT assay. It counts as functional, cell-based. The conditions noted are these: SW480, 48 h.
The species entered for another assay is Bos taurus. The assay can be described thus: Inhibition of bovine F0F1-ATPase at 50 uM.
The test system of another assay is MDA-MB-231. The assay can be described thus: Antiproliferative activity against human MDA-MB-231 cells assessed as reduction in cell viability incubated for 48 hrs by MTT assay. The conditions noted are these: MDA-MB-231, 48 h. It counts as functional, cell-based.

Structures are written as SMILES. Bounds are passed on as bounds.

Turning to `COC[C@@H](C[C@H]1O[C@@](O)([C@H](O)[C@@H]2C[C@H](OC)[C@@H](O)CC/C=C(C)/C=C/[C@@H](O[C@@H]3O[C@@H](C)[C@H](OC)[C@@H](O)[C@@H]3O)[C@H](C)/C=C(C)/C=C(C)/C=C(/C)C(=O)O2)[C@H](C)[C@@H](O)[C@H]1C)O[C@H]1C[C@](C)(O)[C@@H](O[C@H]2C[C@@H](OC)[C@H](O)[C@@H](C)O2)[C@H](C)O1`, the IC50 with NCI-H292 is 0.15 µM.
In the case of `COC[C@@H](C[C@H]1O[C@@](O)([C@H](O)[C@@H]2C[C@H](OC)CCC/C=C(C)/C=C/[C@@H](O[C@@H]3O[C@@H](C)[C@H](OC)[C@@H](O)[C@@H]3O)[C@H](C)/C=C(C)/C=C(C)/C=C(\C)C(=O)O2)[C@H](C)[C@@H](O)[C@H]1C)O[C@H]1C[C@](C)(O)[C@@H](O[C@H]2C[C@@H](OC)[C@H](O)[C@@H](C)O2)[C@H](C)O1`, the half-inhibitory concentration (IC50) with NCI-H292 was 0.007 µM.
With `COc1cc(/C=C/C=C/C=C/[C@]2(C)O[C@]3(C)[C@@H](O)[C@](C)(O[C@@H]3C)[C@H]2O)oc(=O)c1`, the half-maximal inhibitory concentration (IC50) in the assay on MCF7, with HL-60, with SMMC-7721, in the assay with A549 and in the assay with SW480 was greater than 40 µM throughout.
For `CC(=O)Oc1ccc(/C=C/c2cc(OCCCC[P+](c3ccccc3)(c3ccccc3)c3ccccc3)cc(OC(C)=O)c2)cc1`, the inhibition in the assay filed under Bos taurus was greater than 40%.
As to `COC[C@@H](C[C@H]1O[C@@](O)([C@H](O)[C@@H]2C[C@H](OC)[C@@H](O)CC/C=C(C)/C=C/[C@@H](O[C@@H]3O[C@@H](C)[C@H](OC)[C@@H](O)[C@@H]3O)[C@H](C)/C=C/C=C(C)/C=C(\C)C(=O)O2)[C@H](C)[C@@H](O)[C@H]1C)O[C@H]1C[C@](C)(O)[C@@H](O[C@H]2C[C@@H](OC)[C@H](O)[C@@H](C)O2)[C@H](C)O1`, in the assay with NCI-H292, the concentration for half-maximal inhibition (IC50) is 0.11 µM.
On the same count and under the same terms, as for `COC[C@@H](C[C@H]1O[C@@](O)(C[C@@H]2C[C@H](OC)CCC/C=C(C)/C=C/[C@@H](O[C@@H]3O[C@@H](C)[C@H](OC)[C@@H](O)[C@@H]3O)[C@H](C)/C=C(C)/C=C(C)/C=C(\C)C(=O)O2)[C@H](C)[C@@H](O)[C@H]1C)O[C@H]1C[C@](C)(O)[C@@H](O[C@H]2C[C@@H](OC)[C@H](O)[C@@H](C)O2)[C@H](C)O1`, the figure is 0.024 µM.
Regarding `COc1cc(/C=C/c2ccc(OCCCC[P+](c3ccccc3)(c3ccccc3)c3ccccc3)cc2)cc(OC)c1`, in the assay listed under Bos taurus, the inhibition is greater than 40%.
Take `COC[C@H](O)C[C@H]1O[C@@](O)(C[C@@H]2C[C@H](OC)CCC/C=C(C)/C=C/[C@@H](O[C@@H]3O[C@@H](C)[C@@H](OC)[C@@H](O)[C@@H]3O)[C@H](C)/C=C(C)/C=C(C)/C=C(\C)C(=O)O2)[C@H](C)[C@@H](O)[C@H]1C`: in the assay with NCI-H292, the IC50 was greater than 1 µM.
As to `CC[C@@H]1O[C@@](C)(/C=C/C=C/C=C/c2cc(OC)c(C)c(=O)o2)[C@@H](O)[C@]1(C)O`, the IC50 in the assay on MDA-MB-231 was greater than 50 µM.
Take `CC[C@H]1O[C@@]2(C)[C@H](O)[C@@]1(C)O[C@@H](/C=C/C=C/C=C/c1oc(=O)cc(OC)c1C)[C@@H]2O`: in the assay on MDA-MB-231, the IC50 amounted to 8.79 µM.
`CC[C@H]1O[C@@]2(C)[C@H](OCCC(=O)O)[C@@]1(C)O[C@@H](/C=C/C=C/C=C/c1oc(=O)cc(OC)c1C)[C@@H]2O`: the IC50 in the assay with MCF7, with HL-60, with SMMC-7721, with A549 and in the assay with SW480 was greater than 40 µM throughout.
As for `CC[C@H]1O[C@@]2(C)[C@H](OC(C)=O)[C@@]1(C)O[C@@H](C(O)/C=C/C(/C=C/c1oc(=O)cc(OC)c1C)OC)[C@@H]2O` (some centres undefined), the IC50 with MCF7, with HL-60, in the assay on SMMC-7721, with A549 and with SW480 was greater than 40 µM throughout.
`COc1cc(=O)oc(/C=C/C=C/C=C/[C@@H]2O[C@]3(C)[C@@H](OC(C)=O)[C@](C)(O[C@@H]3[C@@H](C)O)[C@H]2O)c1C`: the concentration for half-maximal inhibition (IC50) with MDA-MB-231 came to 0.08 µM.
Same read-out and setting: the value for `COc1cc(=O)oc(/C=C/C=C/C=C/[C@]2(C)O[C@]3(C)[C@@H](O)[C@](C)(O[C@@H]3C)[C@H]2O)c1C` was greater than 5.43 µM.
For the compound `COc1ccc(/C=C/c2cc(OC)cc(OCCCC[P+](c3ccccc3)(c3ccccc3)c3ccccc3)c2)cc1`, the inhibition in the assay filed under Bos taurus was greater than 40%.
For the compound `CC[C@H]1O[C@@]2(C)[C@H](OC(C)=O)[C@@]1(C)O[C@@H](C(O)C(/C=C/C=C/c1oc(=O)cc(OC)c1C)OC)[C@@H]2O` (some centres undefined), the half-maximal inhibitory concentration (IC50) with MCF7, in the assay with HL-60, with SMMC-7721, in the assay on A549 and with SW480 was greater than 40 µM throughout.
In turn, `CC(=O)Oc1cc(/C=C/c2ccc(OCCCC[P+](c3ccccc3)(c3ccccc3)c3ccccc3)cc2)cc(OC(C)=O)c1` displayed an inhibition in the assay listed under Bos taurus greater than 40%.
On to `CC[C@H]1O[C@@]2(C)[C@H](OC(C)=O)[C@@]1(C)O[C@@H](/C=C/C=C/C=C/c1cc(OC)cc(=O)o1)[C@@H]2O`, for which the half-inhibitory concentration (IC50) in the assay on MCF7, in the assay on HL-60, in the assay on SMMC-7721, in the assay on A549 and in the assay on SW480 was greater than 40 µM throughout.
As for `CC[C@H]1O[C@@]2(C)[C@H](OC(C)=O)[C@@]1(C)O[C@@H](C(O)/C=C/C(O)/C=C/c1oc(=O)cc(OC)c1C)[C@@H]2O` (some centres undefined), the IC50 with MCF7 is greater than 40 µM; in the assay on HL-60, greater than 40 µM; with SMMC-7721, 18.3 µM; with A549, greater than 40 µM; in the assay on SW480, 14.4 µM.
As to `CC[C@H]1O[C@@]2(C)[C@H](OC(C)=O)[C@@]1(C)O[C@@H](C(O)C(O)/C=C/C=C/c1oc(=O)cc(OC)c1C)[C@@H]2O` (some centres undefined), the IC50 in the assay with MCF7, with HL-60, in the assay with SMMC-7721, with A549 and in the assay on SW480 was greater than 40 µM in each case.
Turning to `COC[C@@H](C[C@H]1O[C@@](O)(C[C@@H]2C[C@H](OC)CCC/C=C(C)/C=C/[C@@H](O[C@@H]3O[C@@H](C)[C@@H](OC)[C@@H](O)[C@@H]3O)[C@H](C)/C=C(C)/C=C(C)/C=C(\C)C(=O)O2)[C@H](C)[C@@H](O)[C@H]1C)O[C@H]1C[C@](C)(O)[C@@H](O[C@H]2C[C@@H](OC)[C@H](O)[C@@H](C)O2)[C@H](C)O1`, the IC50 in the assay with NCI-H292 was less than 0.1 µM.
On to `CC[C@H]1O[C@@]2(C)[C@H](OC(C)=O)[C@@]1(C)O[C@@H](CC(O)/C=C/C=C/c1oc(=O)cc(OC)c1C)[C@@H]2O` (some centres undefined), for which the half-maximal inhibitory concentration (IC50) with MCF7, in the assay with HL-60, in the assay with SMMC-7721, in the assay with A549 and in the assay with SW480 was greater than 40 µM throughout.
On to `CC[C@H]1O[C@@]2(C)[C@H](OC(C)=O)[C@@]1(C)O[C@@H](/C=C/C=C/C=O)[C@@H]2O`, for which the IC50 with MCF7, in the assay with HL-60, in the assay on SMMC-7721, in the assay on A549 and in the assay on SW480 was greater than 40 µM in each case.
Turning to `CC[C@H]1O[C@@]2(C)[C@H](O)[C@@]1(C)O[C@@H](CC(O)/C=C/C=C/c1oc(=O)cc(OC)c1C)[C@@H]2O` (some centres undefined), the half-inhibitory concentration (IC50) with MCF7, in the assay with HL-60, in the assay with SMMC-7721, in the assay with A549 and in the assay on SW480 was greater than 40 µM throughout.

The term IC50 denotes the concentration that gives 50% inhibition. The inhibition is the drop in the measured response relative to a control, in per cent.
